Laboratory results reported in patent US8741659B2, “Composition for measuring the binding affinity between nucleic acid and test substance, and use thereof” (Osaka University, priority 2007, dated 2014).

How the values were obtained:
RRE [1] = test: Displacement assay using Rev peptide after formation of complex with RRE; type: binding, HIV-1; conditions: for fluorescence intensity in displacement assay / recovery rate of the fluorescence intensity: compound and RRE each 2 μM
Experimental: In this Example, a binding affinity between a test substance and RRE was evaluated, with use of the compounds, X2S, X2S(3), X2S(4), X2S(5), X2S(2-Me), and 3,6-X2S(2). As the test substance, Rev protein used in Example 5 was used.
Firstly, in the same manner as in Example 3, the above compounds and RREs were respectively dissolved in cacodylate buffer solutions (sodium cacodylate: 10 mM pH 7.0, NaCl: 100 mM) each at 2 μM, so that an X2S-RRE solution, an X2S(3)-RRE solution, an X2S(4)-RRE solution, an X2S(5)-RRE solution, an X2S(2-Me)-RRE solution, and a 3,6-X2S(2)-RRE solution were prepared.
To each of these solutions, Rev protein was added in stages at 0 μM, 0.4 μM, 0.8 μM, 1.2 μM, 1.6 μM, 2.0 μM, 2.4 μM, 2.8 μM, 3.2 μM, 3.6 μM, and 4.0 μM. Further, a fluorescence intensity was measured at each concentration. The fluorescence intensity was measured in the same manner as that described in Example 14.
Each of FIGS. 43 to 48 is a view illustrating a result of the measurement of a binding affinity between Rev protein and RRE. […] In each of FIGS. 43 to 48, the horizontal axis represents the fluorescence wavelength, whereas the vertical axis represents the fluorescence intensity. […] Further, along the direction of the arrow extending from the curved line at the bottom, the curved lines, showing the respective results, are arranged in order of increasing amount of the test substance which was added.
FIG. 49 is a view illustrating a relationship between an amount of Rev added and a fluorescence intensity, in connection with X2S, X2S(3), X2S(4), X2S(5), X2S(2-Me), and 3,6-X2S(2). Further, FIG. 49 is also a view plotting, based on the results illustrated in FIGS. 43 to 48, the fluorescence intensities detected at the fluorescence wavelength at which the respective fluorescence peaks were observed. FIG. 50 is a graph illustrating a relationship between an amount of Rev added and a recovery rate of the fluorescence intensity. In FIG. 49, the vertical axis represents the fluorescence intensity. In FIG. 50, the vertical axis represents the recovery rate of the fluorescence intensity. In each of FIGS. 49 and 50, the horizontal axis represents the amount of Rev added. That is, each of FIGS. 49 and 50 reflects amounts of the above compounds liberated from RREs due to the addition of Rev.
The recovery rate of the fluorescence intensity was obtained by dividing (i) a maximum value of the fluorescence intensity detected at each Rev concentration ranging from 0 μM to 4.0 μM in each of FIGS. 43 to 48 by (ii) a maximum value of the fluorescence intensity of the curved line at the top in each of FIGS. 43 to 48.
In this Example, 1-Pyrenemethanamide, hydrochloride was used to measure a binding affinity between a test substance and RRE. As the test substance, Rev protein used in Example 5 was used.
Firstly, in the same manner as in Example 3, 1-Pyrenemethanamide, hydrochloride and RRE were dissolved in a cacodylate buffer solution (sodium cacodylate: 10 mM, pH 7.0; NaCl: 100 mM) each at 2 μM, so that a 1-Pyrenemethanamide, hydrochloride-RRE solution was prepared.
To the solution, Rev protein was added in steps at 0 μM, 0.4 μM, 0.8 μM, 1.2 μM, 1.6 μM, 2.0 μM, 2.4 μM, 2.8 μM, 3.2 μM, 3.6 μM, and 4.0 μM. Further, the solution at each concentration was irradiated with light having an excitation wavelength of 340 nm, and a fluorescence intensity was measured. A device used for measuring a fluorescence intensity and a variation in a slit width were the same as those in Example 13.
FIG. 55 is a view illustrating a result of the measurement of a binding affinity between Rev protein and RRE. The horizontal axis represents the fluorescence wavelength, whereas the vertical axis represents the fluorescence intensity. […] Further, along a bottom-to-top direction, the curved lines, showing the respective results, are arranged in order of increasing amount of the test substance which was added. […]

[2] = test system: RNAs of FIG. 2 (SEQ ID NOs: 1 through 3), with or without bulge structure; test: Evaluation of binding between xanthone fluorescent molecule and RNA (fluorescence before and after mixing RNA); conditions: 10 μM compound
Experimental: Next, binding between X2S and RNAs was evaluated. The RNAs used in the present example had the structure illustrated in FIG. 2. FIG. 2 is a diagram schematically illustrating the structure of the RNAs used in the present example. The RNAs used in the present example had sequences shown in SEQ ID NOs: 1 through 3.
The symbol N in FIG. 2 represents either a base out of A, U, C, and G, or no base. Thus, in a case where a particular RNA as in FIG. 2 has N representing a base out of A, U, C, and G, the RNA is an RNA formed by hybridization of an RNA having the base sequence shown in SEQ ID NO: 1 with a single strand RNA having the base sequence shown in SEQ ID NO: 2. On the other hand, in a case where a particular RNA as in FIG. 2 has N representing no base, the RNA is an RNA formed by hybridization of an RNA having the base sequence shown in SEQ ID NO: 1 with an RNA having the base sequence shown in SEQ ID NO: 3.
This also applies to other bases. The RNAs used in the present example were purchased from Hokkaido System Science Co., Ltd.
Firstly, X2S was mixed in a cacodylate buffer solution (sodium cacodylate: 10 mM, pH 7.0; NaCl: 100 mM) at 10 μM, so that an X2S solution was obtained. The X2S solution was irradiated with light having an absorption maximum of 371±3 nm, and a fluorescence intensity was then measured. The fluorescence intensity was measured with use of a device (product number: RF-5300PC) available from Shimadzu Corporation. For each type of the RNAs, the fluorescence intensity was measured after the RNA was mixed in the X2S solution at 30 μM.
FIGS. 3 and 4 compare the fluorescence intensities measured before and after the RNA was mixed. […] The horizontal axis represents the fluorescence wavelength, whereas the vertical axis represents the fluorescence intensity. FIG. 4 is an enlarged graph corresponding to the fluorescence intensity of 5 A.U. in FIG. 3 and its vicinity.
Binding between X1S and RNAs was evaluated by a method identical to the method described in Example 2, except that X1S was used instead of X2S. […]

RRE [3] = test: Displacement assay using X2S; type: binding, HIV-1; conditions: for binding affinity with respect to RRE / change of fluorescence intensity on addition of test substance: X2S and RRE each 2 μM, test substance 0-4.0 μM; for change of fluorescence intensity on addition of test substance: 453 nm
Excerpt: In this Example, X2S was used to measure a binding affinity between a test substance and RRE. As the test substance, Rev protein (supplied by Professor Takashi MORII, Graduates School of Energy Science, Kyoto University), aminoglycoside antibiotic neomycin (available from Sigma-Aldrich, product number; N-1876) (hereinafter, simply referred to as “neomycin”), and thrombin (available from Bachem, product number; AG H-8550) were used. […] The structure of Rev protein is shown in FIG. 9, and the amino acid sequence of Rev protein is shown in SEQ ID NO: 5. FIG. 9 is a view schematically illustrating the structure of Rev protein. Further, the structure of thrombin is shown in FIG. 10, and the amino acid sequence of thrombin is shown in SEQ ID NO: 6. FIG. 10 is a view schematically illustrating the structure of thrombin.
Firstly, in the same manner as in Example 3, X2S and RRE were dissolved in a cacodylate buffer solution (sodium cacodylate: 10 mM, pH 7.0; NaCl: 100 mM) each at 2 μM. Thus, an X2S-RRE solution was prepared.
To the X2S-RRE solution, Rev protein was added in steps at 0 μM, 0.4 μM, 0.8 μM, 1.2 μM, 1.6 μM, 2.0 μM, 2.4 μM, 2.8 μM, 3.2 μM, 3.6 μM, and 4.0 μM. Further, a fluorescence intensity was measured at each concentration. Similarly, to the X2S-RRE solution, neomycin was added in steps at 0 μM, 0.4 μM, 0.8 μM, 1.2 μM, 1.6 μM, 2.0 μM, 2.4 μM, 2.8 μM, 3.2 μM, 3.6 μM, and 4.0 μM. Further, a fluorescence intensity was measured at each concentration. Similarly, to the X2S-RRE solution, thrombin was added in steps at 0 μM, 0.4 μM, 0.8 μM, 1.2 μM, 1.6 μM, 2.0 μM, 2.4 μM, 2.8 μM, 3.2 μM, 3.6 μM, and 4.0 μM. Further, a fluorescence intensity was measured at each concentration. The fluorescence intensities were measured in the same manner as that described in Example 2.
FIG. 11 is a view illustrating a result of the measurement of a binding affinity between Rev protein and RRE; FIG. 12 is a view illustrating a result of the measurement of a binding affinity between neomycin and RRE; and FIG. 13 is a view illustrating a result of the measurement of a binding affinity between thrombin and RRE. In each of FIGS. 11 to 13, the horizontal axis represents the fluorescence wavelength, whereas the vertical axis represents the fluorescence intensity. […] Furthermore, along the direction of the arrow extending from the curved line at the bottom, the curved lines are arranged in order of increasing amount of the test substance which was added.
FIG. 14 is a view plotting the fluorescence intensities at a fluorescence wavelength of 453 nm shown in the results illustrated in FIGS. 11 to 13. The horizontal axis represents the concentration of each test substance, whereas the vertical axis represents the fluorescence intensity. In FIG. 14, the circle marks represent the result obtained in the case involving use of Rev protein, the square marks represent the result obtained in the case involving use of neomycin, and the triangle marks represent the result obtained in the case involving use of thrombin.
A displacement assay using X2S was performed in the same manner as that described in Example 5, except that, in this Example, fluorescence was measured also when Rev protein was added at concentrations of 4.4 μM and 4.8 μM.
FIG. 16 is a view illustrating the result of the displacement assay using X2S. The horizontal axis represents the fluorescence wavelength, whereas the vertical axis represents the fluorescence intensity.

Question: Which “fluorescence intensity in displacement assay” value (RRE [1]; Rev protein 0-4.0 μM) does the source give for `NCCOc1ccc2c(=O)c3ccc(OCCN)cc3oc2c1` [3,6-X2S(2), 3,6-bis(2-aminoethoxy)xanthen-9-one] here?
Answer: low

Question: And the “recovery rate of the fluorescence intensity” value (RRE [1]; Rev protein 0-4.0 μM)?
Answer: almost equal to that of X2S

Question: `NCCOc1ccc2oc3ccccc3c(=O)c2c1` [X1S, 2-(2-aminoethoxy)xanthen-9-one] was tested. Which “binding to RNAs” value ([2]; 30 μM RNA (A, U, C, G bulge or no bulge), cacodylate buffer pH 7.0, NaCl 100 mM) did it give?
Answer: binds to RNAs regardless of whether the bulge structure is present

Question: And the “detected decrease in the fluorescence intensity on mixing RNA” value ([2]; 30 μM RNA, compared with X2S)?
Answer: small as compared to the case of X2S

Question: `CC(N)COc1ccc2oc3ccc(OCC(C)N)cc3c(=O)c2c1` (stereo not shown) [X2S(2-Me), 2,7-bis(2-methyl-2-aminoethoxy)xanthen-9-one] was tested. Which “fluorescence intensity in displacement assay” value (RRE [1]; Rev protein 0-4.0 μM) did it give?
Answer: lower than that of X2S

Question: What about the “recovery rate of the fluorescence intensity” value (RRE [1]; Rev protein 0-4.0 μM) of the same compound?
Answer: highest

Question: Which results are given for “Rev protein: Rev protein, SEQ ID NO: 5, known to bind to RRE; test substance (TRQARRNRRRRWRERQRAAAAR; Human immunodeficiency virus type 1)”?
Answer: change of fluorescence intensity on addition of Rev protein (RRE [1]; 1-Pyrenemethanamide, hydrochloride and RRE each 2 μM, excitation 340 nm): increased the fluorescence intensity; binding affinity of Rev protein with respect to RRE (RRE [1]; measured with X2S, X2S(3), X2S(4), X2S(5), X2S(2-Me), 3,6-X2S(2), each 2 μM with RRE): significantly high binding affinity; change of fluorescence intensity on addition of Rev protein (RRE [1]; xanthone compounds and RRE each 2 μM, Rev protein 0-4.0 μM): increased the fluorescence intensity; binding affinity with respect to RRE (RRE [3]): significantly high binding affinity; change of fluorescence intensity on addition of test substance (RRE [3]): increased the fluorescence intensity; fluorescence intensity recovered (RRE [3]; X2S-RRE solution, FIG. 14, 453 nm): approximately 80%

Question: What does the source list for neomycin [reference compound]?
Answer: binding affinity with respect to RRE (RRE [3]): lower binding affinity with respect to RRE compared with Rev protein; change of fluorescence intensity on addition of test substance (RRE [3]): slightly increased the fluorescence intensity

Question: How did the “binding affinity with respect to RRE” value (RRE [3]) turn out when thrombin was run?
Answer: does not bind to RRE

Question: What about the “change of fluorescence intensity on addition of test substance” value (RRE [3]) of the same compound?
Answer: hardly increased the fluorescence intensity
